Values after ≈ are worked out from the molar mass of the structure shown. Values joined by “and” are separate entries in the source; they are usually repeats but may differ in a detail not shown here. Equal entries are not always repeated. Where two headings read alike, the source gives them in different places.
How the values were obtained:
H. pylori strain 26695 = experiment: Growth curve method / MIC in liquid culture, strain 26695; assay type: cell-based, Helicobacter pylori; conditions: Helicobacter pylori
How it was run: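 Two-fold serial dilutions in BHI liquid medium with 10% FBS and 1% H. pylori Selective Supplement, inoculated at 10^4-10^5 CFU/ml (OD600=0.05); shaken 24 h at 37° C. under microaerophilic conditions (5% O2, 10% CO2, 85% N2). MIC from OD600 growth; viability confirmed by 4 h urease/phenol red colour change; triplicate.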

[1] = target: T1, AdSS from H. pylori strain 26695 (Helicobacter pylori, UniProt P56137); experiment: AdSS enzyme activity assay (adenylosuccinate formation, 280 nm); assay type: biochemical; conditions: for AdSS activity after incubation: 1.23 U/mg in the absence of PLP
T1 construct: made in house; host or cells: E. coli BL21 (DE3)
T1 sequence (P56137 1-411): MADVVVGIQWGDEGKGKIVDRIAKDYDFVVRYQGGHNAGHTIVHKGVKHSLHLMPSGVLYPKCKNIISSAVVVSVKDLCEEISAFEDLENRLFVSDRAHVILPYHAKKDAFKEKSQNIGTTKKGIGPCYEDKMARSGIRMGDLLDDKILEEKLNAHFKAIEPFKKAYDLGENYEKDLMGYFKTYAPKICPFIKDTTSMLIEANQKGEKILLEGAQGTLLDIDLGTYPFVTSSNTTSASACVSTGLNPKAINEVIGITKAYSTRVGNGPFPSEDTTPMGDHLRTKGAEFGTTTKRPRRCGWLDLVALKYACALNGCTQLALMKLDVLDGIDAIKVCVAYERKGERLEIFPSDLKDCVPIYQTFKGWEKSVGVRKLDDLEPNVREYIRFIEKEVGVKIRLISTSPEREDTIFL
Procedure: Enzymatic activity measurements were carried out in the similar manner as described in Bubić et al. (2018), at 25° C., in cuvettes with an optical path length of 1 cm containing 1 ml of reaction mixture consisting of 20 mM Hepes/NaOH buffer pH 7.7, 1 mM MgSO4 and the substrates, GTP, IMP and Asp. Saturating concentrations of substrates, namely GTP: 0.06 mM, IMP: 0.15 mM and Asp: 5 mM, were used to measure specific activity. The extinction coefficient at 280 nm of 1.17×10^4 M^−1 cm^−1 (adenylosuccinate formation) was used to calculate the concentration of the product formed (Rudolph and Fromm 1969). One unit (U) of AdSS specific activity is defined as μmol of adenylosuccinate produced per minute at 25° C. Specific activity is expressed as units of enzymatic activity per mg of protein (U/mg).
Inhibition of AdSS by PLP was examined first at saturation with all enzyme substrates and with increasing concentrations of the PLP inhibitor.
To determine the extent to which PLP-induced inactivation develops over time, the enzyme at low concentration (0.022 μM) was incubated at 25° C. in Hepes/NaOH buffer pH 7.0, in the presence of 1.11 mM MgSO4, 5.55 mM Asp, 167 μM IMP and PLP at various concentrations (ranging between 0.03 μM and 8.1 μM). The mixture contained all components necessary for the reaction with the exception of GTP, which, according to Dong and Fromm (1990), competes with PLP. Aliquots of 900 μl were taken from the incubated mixture at specified time intervals, placed in a cuvette and 100 μl of 0.6 mM GTP solution was added to initiate the reaction. The enzyme activity was determined and analysed in the known manner as described above.
Exponential decays were fitted to the data obtained for each concentration and the reaction rate constant of the inactivation process, k, and the residual enzymatic activity observed when the system reached equilibrium, A∞, were obtained as fitting parameters. From these parameters, the half-life of the inactivation process activity, t1/2, was calculated. The dependence of these three parameters on PLP concentration is shown in the lower panel of FIG. 12.
The inhibition of AdSS from H. pylori by pyridoxal (PI-h) was studied at saturation with all enzyme substrates and with increasing concentrations of the inhibitor, similar to that for PLP in Example 10a).

[2] = strain 26695, wild-type, read-out: MIC (Table 7)
[3] = 8.1 μM PLP, about 10 minutes of incubation without GTP

| Compound | MIC (H. pylori strain 26695; [2]) | MIC (H. pylori strain 26695; strain 26695, read-out: MIC) | effect on AdSS activity ([1]; 400 μM (maximum used), saturating substrates) | IC50 [1] | AdSS activity after incubation ([1]; 0.03 μM PLP, about 4 hours of incubation without GTP) | inactivation of AdSS ([1]; 0.03 μM PLP, enzyme 0.022 μM incubated without GTP, 25° C.) | inactivation of the enzyme ([1]; 1 μM PLP, incubation without GTP) | decrease in AdSS activity [1, 3] | AdSS activity after incubation [1, 3] | decrease of enzyme activity ([1]; PLP above about 100 μM, saturating substrates, 25° C., pH 7.7) |
| --- | --- | --- | --- | --- | --- | --- | --- | --- | --- | --- |
| Cc1ncc(CO)c(C=O)c1O.Cl [PI-h, pyridoxal hydrochloride] | 2.5 µM | 509 µg/mL and 2500 µM | no effect on AdSS activity | – | – | – | – | – | – | – |
| Cc1ncc(COP(=O)(O)O)c(C=O)c1O [PLP, pyridoxal 5′-phosphate] | 2.5 µM (≈ 0.618 µg/mL) | 618 µg/mL and 2500 µM | – | 13.3 µM | 0.48 U/mg | more than 50% | 90% | about 97% | 0.04 U/mg | 86% |

— patent US20250195498A1, “INHIBITOR OF CELLULAR PURINE NUCLEOTIDE SALVAGE PATHWAY ENZYME FOR USE IN THE TREATMENT AND/OR PREVENTION OF HELICOBACTER PYLORI INFECTION AND/OR DISEASE ASSOCIATED WITH SUCH INFECTION AND PHARMACEUTICAL COMPOSITION COMPRISING THE SAME” (UNIWERSYTET WARSZAWSKI, priority 2022, published 2025)
